Test results published in PubChem BioAssay AID1117334 (Cheminformatics & Chemogenomics Research Group (CCRG), …, 2015).
Active and inactive are the calls of the source. How the calls were made is not given here.

Tested on: Colo320 viability, CellTiter-Glo luminescence
Assay: cytotoxicity toward Colo320 cells – cell-based, CellTiter-Glo luminescence, IC50, dose response (AID 1117334)

| SMILES | IC50 |
| --- | --- |
| Cc1ccc([N+](=O)[O-])[c]2c1[O][Hg]2 | 935 nM |
| Cn1cnc([N+](=O)[O-])c1Sc1ncnc2nc[nH]c12 | 10300 nM (inactive) |
| CC(C)n1c(/C=C/[C@@H](O)C[C@@H](O)CC(=O)O)c(-c2ccc(F)cc2)c2ccccc21 | 13000 nM (inactive) |
| O=C(O)C1(C(=O)O)CCC1.[NH2-].[NH2-].[Pt+2] | > 20000 nM (inactive) |
| CO[C@@]12[C@H](COC(N)=O)C3=C(C(=O)C(C)=C(N)C3=O)N1C[C@@H]1N[C@@H]12 | 12600 nM (inactive) |
| CCCCCCCCCCCCCC[N+](C)(C)C | 2520 nM |
| CCN(CC)CCCC(C)Nc1c2ccc(Cl)cc2nc2ccc(OC)cc12 (stereo unspecified) | 8440 nM (inactive) |
| O=C1[O][Bi][O]c2ccccc21 | > 20000 nM (inactive) |
| CC(=O)[O][Hg][c]1ccccc1 | 1300 nM |
| O=Cc1ccc(O)c(O)c1O | 9080 nM (inactive) |
| OCCN1CCN(CC/C=C2/c3ccccc3Sc3ccc(C(F)(F)F)cc32)CC1 | 2310 nM |
